This is an account of results in PMC3433255 (Journal of medicinal chemistry, 2012).

Data set [1] concerns MCF-7 breast cancer cells. Description: Growth inhibition, 3 h treatment. Format: cell-based, human. The conditions noted are these: MCF-7, 3 h treatment followed by 3 – 4 days of growth; outside the concentration range; average of at least six measurements.
The conditions of data set [2]: physiological conditions, 37 °C and pH 7; cited from earlier work.

`COc1cccc2c1C(=O)c1c(O)c3c(c(O)c1C2=O)C[C@@](O)(C(=O)CO)C[C@@H]3O[C@H]1C[C@H](NC(=O)OCc2ccc(NC(=O)[C@H](CCCCN)NC(=O)[C@H](Cc3ccccc3)NC(=O)[C@@H](C)N)cc2)[C@H](O)[C@H](C)O1.O=P(O)(O)O` [aFK-Dox, N-(N-(D-alanyl-L-phenylalanyl-L-lysyl)-p-aminobenzyloxycarbonyl)-doxorubicin] gave an IC50 in data set [1] above −6 log M. For the molecule `COc1cccc2c1C(=O)c1c(O)c3c(c(O)c1C2=O)C[C@@](O)(C(=O)CO)C[C@@H]3O[C@H]1C[C@@H]2NCO[C@@H]2[C@H](C)O1` [doxaz, doxazolidine], in data set [2], the “half-life of hydrolysis to dox” value is “approximately 3 min”.
